Measurements published in US10723699B2 (Hyundai Pharm Co., Ltd., priority 2015, dated 2020).
Entries after “also recorded” stand apart in the source; their conditions may differ. Where two headings read alike, the source gives them in different places.

Legend:
[1] = test system: diet-induced obesity (DIO) rat model; experiment: Changes in weights in diet-induced obesity (DIO) rat model, 4-week administration; format: in vivo, Sprague Dawley (SD) rats; conditions: 5 mg/kg oral, 4 weeks
Description: To simultaneously evaluate both the weight-loss and hypoglycemic effects of the cyclohexene derivative according to the present invention, experiments were carried out, as follows.
Specifically, male Sprague Dawley (SD) rats (approximately 4 weeks old) in a diet-induced obesity model were fed with a high-fat diet (Lab. Diet Co.) for approximately 10 weeks to induce high-fat diet-induced obesity (DIO). The rats undergoing the high-fat diet were randomly selected, and divided into groups (n=8) for respective administrations. The compounds of Comparative Examples 3 and 4 and Examples 48 and 119 were administered to the divided DIO rats each group for 4 weeks.
The weights of the DIO rats were measured twice a week during a period of administration of 4 weeks to record a change in the weights. At the end of the 4-week period of administration, a hypoglycemic effect was evaluated using an oral glucose tolerance test (OGTT), as follows.

[2] = molecular target: T1, G protein-coupled receptor 119 (GPR-119) (Mesocricetus auratus, UniProt A0A1U8CD06); experiment: cAMP activity in HIT-T15 cells (cAMP dynamic kit, FRET); format: cell-based, hamster
T1 construct: hamster-derived β-cells containing G protein-coupled receptor 119 (GPR-119), HIT-T15 cells; host or cells: HIT-T15 (hamster pancreatic β-cells)
T1 sequence (A0A1U8CD06 1-334): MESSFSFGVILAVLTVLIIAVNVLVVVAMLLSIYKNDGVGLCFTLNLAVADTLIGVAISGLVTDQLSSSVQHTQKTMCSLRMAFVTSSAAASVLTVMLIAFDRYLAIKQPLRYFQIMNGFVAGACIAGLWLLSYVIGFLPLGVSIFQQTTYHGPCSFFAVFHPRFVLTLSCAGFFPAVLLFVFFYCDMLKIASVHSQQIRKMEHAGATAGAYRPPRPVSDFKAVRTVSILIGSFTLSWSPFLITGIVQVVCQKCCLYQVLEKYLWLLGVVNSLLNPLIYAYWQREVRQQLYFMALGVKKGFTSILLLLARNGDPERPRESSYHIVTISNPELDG
How it was run: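 Hamster HIT-T15 cells (60,000/well) were treated next day with compound at six concentrations, 0.0032–10 μM, for 1 h at 37° C. Cells were then lysed and cAMP measured by competitive HTRF immunoassay (D2-cAMP, cryptate anti-cAMP). Activity was derived as the change in FRET signal relative to DMSO.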

[3] = 1 hour at 37° C., six concentrations 0.0032 to 10 μM, read-out: EC50

Row | SMILES | changes in weights of rats (weight-loss effect) [1] | EC50 [2, 3] | EC50 ([2]; Table 2, read-out: EC50 value)
1 | CC(C)CC(N(C)C)C1(c2ccc(Cl)cc2)CCC1 (centres unmarked) [Comparative Example 4, Sibutramine] | weight loss was observed for 2 weeks; also recorded: the weight rather increased after 2 weeks | – | –
2 | CCc1cnc(N2CCC(COc3ccc(C4=CCC(C(=O)N5CCNCC5)CC4)cc3F)CC2)nc1 (centres unmarked) [Example 434, (4-(4-((1-(5-ethylpyrimidin-2-yl)piperidin-4-yl)methoxy)-3-fluorophenyl)cyclohex-3-enyl)(piperazin-1-yl)methanone] | – | 0.18 µM | –
3 | O=C(C1CC=C(c2ccc(OCC3CCN(c4nc(C(F)(F)F)no4)CC3)c(F)c2)CC1)N1CCCC1 (centres unmarked) [Example 435, (4-(3-fluoro-4-((1-(3-(trifluoromethyl)-1,2,4-oxadiazol-5-yl)piperidin-4-yl)methoxy)phenyl)cyclohex-3-enyl)(pyrrolidin-1-yl)methanone] | – | 0.013 µM | ≤ 0.05 µM
4 | CCC(F)(F)C(=O)N1CCC(COc2ccc(C3=CCC(C(=O)N4CCCC4)CC3)cc2F)CC1 (centres unmarked) [Example 436, 2,2-difluoro-1-(4-((2-fluoro-4-(4-(pyrrolidine-1-carbonyl)cyclohex-1-enyl)phenoxy)methyl)piperidin-1-yl)butan-1-one] | – | 0.0098 µM | ≤ 0.05 µM
5 | CCc1cnc(N2CCC(COc3ccc(C4=CCC(C(=O)N(CCO)CCO)CC4)c(F)c3)CC2)nc1 (centres unmarked) [Example 437, 4-(4-((1-(5-ethylpyrimidin-2-yl)piperidin-4-yl)methoxy)-2-fluorophenyl)-N,N-bis(2-hydroxyethyl)cyclohex-3-enecarboxamide] | – | 0.027 µM | ≤ 0.05 µM
6 | CCc1cnc(N2CCC(COc3ccc(C4=CCC(C(=O)N(CC)CCO)CC4)c(F)c3)CC2)nc1 (centres unmarked) [Example 438, N-ethyl-4-(4-((1-(5-ethylpyrimidin-2-yl)piperidin-4-yl)methoxy)-2-fluorophenyl)-N-(2-hydroxyethyl)cyclohex-3-enecarboxamide] | – | 0.023 µM | ≤ 0.05 µM
7 | CCC(F)(F)C(=O)N1CCC(COc2ccc(C3=CCC(C(=O)N4CCOCC4)CC3)cc2F)CC1 (centres unmarked) [Example 439, 2,2-difluoro-1-(4-((2-fluoro-4-(4-(morpholine-4-carbonyl)cyclohex-1-enyl)phenoxy)methyl)piperidin-1-yl)butan-1-one] | – | 0.0059 µM | ≤ 0.05 µM
8 | CC(OC(=O)N1CCC(COc2ccc(C3=CCC(C(=O)N4CCOCC4)CC3)cc2F)CC1)C(F)(F)F (centres unmarked) [Example 440, 1,1,1-trifluoropropan-2-yl 4-((2-fluoro-4-(4-(morpholine-4-carbonyl)cyclohex-1-enyl)phenoxy)methyl)piperidine-1-carboxylate] | – | 0.0087 µM | ≤ 0.05 µM
9 | CC(C)OC(=O)N1CCC(COc2ccc(C3=CCC(C(=O)N4CCOCC4)CC3)cc2F)CC1 (centres unmarked) [Example 444, isopropyl 4-((2-fluoro-4-(4-(morpholine-4-carbonyl)cyclohex-1-enyl)phenoxy)methyl)piperidine-1-carboxylate] | – | 0.026 µM | ≤ 0.05 µM
10 | O=C(Oc1ccccc1)N1CCC(COc2ccc(C3=CCC(C(=O)N4CCOCC4)CC3)cc2F)CC1 (centres unmarked) [Example 445, phenyl 4-((2-fluoro-4-(4-(morpholine-4-carbonyl)cyclohex-1-enyl)phenoxy)methyl)piperidine-1-carboxylate] | – | 0.011 µM | ≤ 0.05 µM
11 | O=C(OC(C(F)(F)F)C(F)(F)F)N1CCC(COc2ccc(C3=CCC(C(=O)N4CCOCC4)CC3)cc2F)CC1 (centres unmarked) [Example 446, 1,1,1,3,3,3-hexafluoropropan-2-yl 4-((2-fluoro-4-(4-(morpholine-4-carbonyl)cyclohex-1-enyl)phenoxy)methyl)piperidine-1-carboxylate] | – | 0.02 µM | ≤ 0.05 µM
12 | O=C(OC(CF)CF)N1CCC(COc2ccc(C3=CCC(C(=O)N4CCOCC4)CC3)cc2F)CC1 (centres unmarked) [Example 447, 1,3-difluoropropan-2-yl 4-((2-fluoro-4-(4-(morpholine-4-carbonyl)cyclohex-1-enyl)phenoxy)methyl)piperidine-1-carboxylate] | – | 0.062 µM | –
13 | CC(C)c1noc(N2CCC(COc3ccc(C4=CCC(C(=O)N5CCOCC5)CC4)c(F)c3)CC2)n1 (centres unmarked) [Example 448, (4-(2-fluoro-4-((1-(3-isopropyl-1,2,4-oxadiazol-5-yl)piperidin-4-yl)methoxy)phenyl)cyclohex-3-enyl)(morpholino)methanone] | – | 0.025 µM | ≤ 0.05 µM
14 | CC(C)c1noc(N2CCC(COc3ccc(C4=CCC(C(=O)N5CCSCC5)CC4)c(F)c3)CC2)n1 (centres unmarked) [Example 449, (4-(2-fluoro-4-((1-(3-isopropyl-1,2,4-oxadiazol-5-yl)piperidin-4-yl)methoxy)phenyl)cyclohex-3-enyl)(thiomorpholino)methanone] | – | 0.033 µM | ≤ 0.05 µM
15 | O=C(C1CC=C(c2ccc(OCC3CCN(C(=O)C4(C(F)(F)F)CCCC4)CC3)c(F)c2)CC1)N1CCOCC1 (centres unmarked) [Example 450, (4-(3-fluoro-4-((1-(1-(trifluoromethyl)cyclopentanecarbonyl)piperidin-4-yl)methoxy)phenyl)cyclohex-3-enyl)(morpholino)methanone] | – | 0.027 µM | ≤ 0.05 µM
16 | CC(C)=CC(=O)N1CCC(COc2ccc(C3=CCC(C(=O)N4CCOCC4)CC3)cc2F)CC1 (centres unmarked) [Example 451, 1-(4-((2-fluoro-4-(4-(morpholine-4-carbonyl)cyclohex-1-enyl)phenoxy)methyl)piperidin-1-yl)-3-methylbut-2-en-1-one] | – | 0.089 µM | –
17 | CCc1cnc(N2CCC(COc3ccc(C4=CCC(C(=O)N5CCC(C(F)(F)F)CC5)CC4)c(F)c3)CC2)nc1 (centres unmarked) [Example 452, (4-(4-((1-(5-ethylpyrimidin-2-yl)piperidin-4-yl)methoxy)-2-fluorophenyl)cyclohex-3-enyl)(4-(trifluoromethyl)piperidin-1-yl)methanone] | – | 0.018 µM | ≤ 0.05 µM
18 | CCc1cnc(N2CCC(COc3ccc(C4=CCC(C(=O)N5CCC(F)(F)CC5)CC4)c(F)c3)CC2)nc1 (centres unmarked) [Example 453, (4,4-difluoropiperidin-1-yl)(4-(4-((1-(5-ethylpyrimidin-2-yl)piperidin-4-yl)methoxy)-2-fluorophenyl)cyclohex-3-enyl)methanone] | – | 0.012 µM | ≤ 0.05 µM
19 | CCc1cnc(N2CCC(COc3ccc(C4=CCC(C(=O)N5CCC(F)(F)C5)CC4)c(F)c3)CC2)nc1 (centres unmarked) [Example 454, (3,3-difluoropyrrolidin-1-yl)(4-(4-((1-(5-ethylpyrimidin-2-yl)piperidin-4-yl)methoxy)-2-fluorophenyl)cyclohex-3-enyl)methanone] | – | 0.015 µM | ≤ 0.05 µM
20 | CCc1cnc(N2CCC(COc3ccc(C4=CCC(C(=O)N5CC(F)(F)C(F)(F)C5)CC4)c(F)c3)CC2)nc1 (centres unmarked) [Example 455, (4-(4-((1-(5-ethylpyrimidin-2-yl)piperidin-4-yl)methoxy)-2-fluorophenyl)cyclohex-3-enyl)(3,3,4,4-tetrafluoropyrrolidin-1-yl)methanone] | – | 0.018 µM | ≤ 0.05 µM
21 | CCc1cnc(N2CCC(COc3ccc(C4=CCC(C(=O)N5CCC(C(F)(F)F)CC5)CC4)cc3F)CC2)nc1 (centres unmarked) [Example 456, (4-(4-((1-(5-ethylpyrimidin-2-yl)piperidin-4-yl)methoxy)-3-fluorophenyl)cyclohex-3-enyl)(4-(trifluoromethyl)piperidin-1-yl)methanone] | – | 0.018 µM | ≤ 0.05 µM
22 | CCc1cnc(N2CCC(COc3ccc(C4=CCC(C(=O)N5CCC(F)(F)CC5)CC4)cc3F)CC2)nc1 (centres unmarked) [Example 457, (4,4-difluoropiperidin-1-yl)(4-(4-((1-(5-ethylpyrimidin-2-yl)piperidin-4-yl)methoxy)-3-fluorophenyl)cyclohex-3-enyl)methanone] | – | 0.0098 µM | ≤ 0.05 µM
23 | CCc1cnc(N2CCC(COc3ccc(C4=CCC(C(=O)N5CCC(F)(F)C5)CC4)cc3F)CC2)nc1 (centres unmarked) [Example 459, (3,3-difluoropyrrolidin-1-yl)(4-(4-((1-(5-ethylpyrimidin-2-yl)piperidin-4-yl)methoxy)-3-fluorophenyl)cyclohex-3-enyl)methanone] | – | 0.036 µM | ≤ 0.05 µM
24 | CCc1cnc(N2CCC(COc3ccc(C4=CCC(C(=O)N5CC(F)(F)C(F)(F)C5)CC4)cc3F)CC2)nc1 (centres unmarked) [Example 460, (4-(4-((1-(5-ethylpyrimidin-2-yl)piperidin-4-yl)methoxy)-3-fluorophenyl)cyclohex-3-enyl)(3,3,4,4-tetrafluoropyrrolidin-1-yl)methanone] | – | 0.012 µM | ≤ 0.05 µM
